In US20180153830A1, “SELECTIVE INHIBITORS OF UNDIFFERENTIATED CELLS” (Yissum Research Development Company of the Hebrew …, priority 2012, published 2018):

Experiments:
[1] = tested on: hPSCs; experiment: hPSC viability after SCD1 inhibitors with or without oleic acid; assay type: cell-based, human; conditions: 75 nM inhibitor, 100 μM oleic acid, 48 hours
Protocol: (§1) In order to determine whether hPSC viability indeed depends on functional SCD1 activity, hPSCs were exposed to 75 nM of the specific SCD1 inhibitors A939572 and CAY-10566 for 48 hours. Some samples were supplemented with 100 μM oleic acid in order to evaluate the effect of exogenous supplementation of oleic acid (a product of SCD1 activity) on cell death.

[2] = as above; assay type: cell-based, human; conditions: human, human pluripotent stem cells (hPSCs), 75 nM, read-out: decrease in viability of hPSCs
Protocol: as §1

[3] = tested on: transformed BJ fibroblasts; experiment: Methylene blue viability, transformed BJ fibroblasts; assay type: cell-based, human; conditions: up to 100 μM, 72 hours, 2% fetal bovine serum
Protocol: For the high-throughput screens, relative cell number was determined using a CellTiter-Glo® Luminescent Cell Viability Assay as described hereinabove. Otherwise, relative cell numbers were determined by fixating the cells with 0.5% glutardialdehyde and staining with methylene blue dissolved in 0.1 M boric acid (pH 8.5). Color extraction was performed using 0.1 M hydrochloric acid, and the staining (which is proportional to cell number) was quantified by measuring absorbance at a wavelength of 650 nm.
In one experiment, immortalized BJ fibroblasts served as differentiated cells and were compared with BJ fibroblasts induced to undergo cellular transformation, which served as their undifferentiated cancerous counterparts. […]
The differentiated and undifferentiated cells were exposed to PluriSIn #1 at concentrations of up to 100 μM for 72 hours under low (2%) fetal bovine serum conditions. Their viability was then measured using a methylene blue viability assay, as described hereinabove.

[4] = tested on: pluripotent cells in mixed cell population (differentiated and undifferentiated CSES2-SO2/3 cells); experiment: FACS analysis of TRA-1-60 in mixed cell populations; assay type: cell-based, human; conditions: 48 hours, 6-well plates
Protocol: For quantification of remaining undifferentiated cells after treatment, cells were treated with 20 μM PluriSIn #1 (isonicotinic acid N′-phenylhydrazide) for 48 hours or 72 hours, dissociated using TrypLE™ Select (Invitrogen), and washed with PBS supplemented with 10% FBS and 0.05% sodium azide. Dissociated cells were suspended to a final concentration of 10^6 cells/ml. Cells were incubated on ice with TRA1-60-PE antibody (1:40, BD Biosciences), washed and analyzed using LSR II FACS (BD Biosciences) with FCS Express software (De Novo Software, Los Angeles, Calif.).
Mixed cell populations were cultured in 6-well plates and exposed to PluriSIn #1 for 48 hours. The cells were then analyzed by FACS analysis, using staining for the pluripotent marker TRA-1-60, and by fluorescence microscopy imaging of OCT4, as described in the Materials and Methods section.

[5] = target: T1, SCD1 (Homo sapiens, UniProt O00767); experiment: SCD1 activity measurement ([1-14C] stearic acid pulse-chase labeling); assay type: cell-based; parameters: PluriSIn #1 decreased SCD1 activity by approximately 65% decrease in ES cells; endogenous in cells; host or cells: human embryonic stem cells (H9, printed '1-19'); conditions: 20 μM, 12 hours
T1 sequence (O00767 1-359): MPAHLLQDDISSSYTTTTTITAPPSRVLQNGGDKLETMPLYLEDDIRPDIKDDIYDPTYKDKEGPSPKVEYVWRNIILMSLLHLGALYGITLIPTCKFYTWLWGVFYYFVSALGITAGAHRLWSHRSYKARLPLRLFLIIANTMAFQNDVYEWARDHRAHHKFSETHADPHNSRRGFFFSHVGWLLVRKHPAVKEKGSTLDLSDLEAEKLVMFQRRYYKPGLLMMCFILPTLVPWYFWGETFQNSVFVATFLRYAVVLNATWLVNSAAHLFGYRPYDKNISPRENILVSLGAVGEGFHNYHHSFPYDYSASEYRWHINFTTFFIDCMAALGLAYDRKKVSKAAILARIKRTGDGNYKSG
Protocol: Cells were plated in 6-well plates at a density of 50,000 to 100,000 cells per well. 24 hours later, 20 μM of PluriSIn #1 (isonicotinic acid N′-phenylhydrazide) or 0.2% DMSO (control) were added to the cells. After 12 hours of incubation at 37° C., under 5% CO2, the old medium was removed, cells were washed with PBS, and new medium containing 2.3 μM of 0.75 μCi of [1-^14C] stearic acid was added. The cells were then incubated for up to 4 hours at 37° C., under 5% CO2.
After the incubation period, the medium was discarded and the cells were washed 3 times with 2 ml of PBS. 2 ml of an n-hexane:isopropanol mixture (3:2 v:v) were added, and the cells were then incubated for 30 minutes at a temperature of 37° C., under 5% CO2. […] The free fatty acids were detected by ultraviolet illumination after spraying the TLC with a 2′,7′-dichlorofluorescein solution. The spots corresponding to stearic and oleic acid were scraped and the radioactivity counted in a Packard Tri-Carb® 1600TR scintillating counter. SCD1 desaturase activity was calculated from the percent conversion of substrate to product and the conversion to picomoles per minute per 10^6 cells. […]
In order to directly examine whether PluriSin #1 inhibits SCD activity, and whether this inhibition is restricted to pluripotent cells, SCD1 activity was measured by a pulse-chase labeling assay, as described in the Materials and Methods section. […]

[6] = tested on: H9 stem cells; experiment: Elimination of undifferentiated cells cultured in 6-well plates; assay type: cell-based, human; conditions: 20 μM
Excerpt: The PluriSIns were first tested in various culture conditions and exposure durations.

SMILES | rescue from SCD1 inhibitor-induced cell death by oleic acid [1] | cytotoxicity at 48 h, 75 nM [2] [%] | cytotoxicity towards transformed BJ fibroblasts [3] | pluripotent cells eliminated from culture (TRA-1-60 FACS) [4] | decrease in SCD1 activity in ES cells [5] | exposure required for complete elimination of undifferentiated cells [6] [h]
CNC(=O)c1cccc(NC(=O)N2CCC(Oc3ccccc3Cl)CC2)c1 [A939572, 4-(2-chlorophenoxy)-N-(3-(methylcarbamoyl)-phenyl)piperidine-1-carboxamide, reference compound] | completely rescued | > 80 |  |  |  | 
O=C(NNc1ccccc1)c1ccncc1 [PluriSIn #1, isonicotinic acid N′-phenylhydrazide] |  |  | highly cytotoxic | over 99% | approximately 65% | 48
